Data as given in patent US5677459A, “Methods for the preparation of modulators of acetylcholine receptors” (Sibia Neurosciences, Inc., priority 1995, dated 1997).
Counter-ions that a name gives are not always drawn. Like-named read-outs stand apart in the source and are kept apart here.

Key:
[1] = molecular target: muscarinic acetylcholine receptors; assay: ^3 H-QNB (quinuclidinyl benzilate) binding/displacement, rat cerebral membranes
[2] = test system: ^3 H-Dopamine release, rat striatal slices; assay: Ligand-stimulated ^3 H-dopamine release from rat striatal slices; type: cell-based; details: for Emax at 300 µM: Rattus norvegicus, read-out: % of Nicotine Response, ^3 H-Dopamine, Striatum
Method: (§1) Measurement of ^3 H-dopamine release from rat striatal slices was performed according to the method of Sacaan et al. (J. Neurochem. 59:245 (1992)). Male Sprague-Dawley rats (250-300 g) were decapitated and the striata or olfactory tubercles dissected quickly on a cold glass surface. The tissue was chopped to a thickness of 300 μm with a McIlwain tissue chopper. After chopping again at right angles the tissue was dispersed and incubated for 10 min. at 37° C. in oxygenated Kreb's buffer. ^3 H-Dopamine (40 Ci/mmol, NEN- Dupont, Boston, Mass.) was added (50 nM) and the tissue was incubated for 30 min. in Kreb's buffer containing 10 μM pargyline and 0.5 mM ascorbic acid. Aliquots of the minced tissue were then transferred to chambers of a Brandel Superfusion system in which the tissue was supported on Whatman GF/B filter discs. The tissue was then superfused with buffer at a constant flow rate of 0.3 ml/min by means of a Brandel peristaltic pump. The perfusate was collected in plastic scintillation vials in 3-min fractions, and the radioactivity was estimated by scintillation spectrophotometry. The superfusate for the first 120 min was discarded. After two baseline fractions had been collected, the superfusion buffer was switched to fresh buffer with or without compound of interest. At the end of the experiment the filter and the tissue were removed, and the radiolabeled neurotransmitter content was estimated after extraction into scintillation fluid. The fractional efflux of radiolabeled neurotransmitter was estimated as the amount of radioactivity in the perfusate fraction relative to the total amount in the tissue.
(§2) Results of studies of the effects of an invention compound (as compared to the effect of nicotine) on the release of neurotransmitters from rat brain slices are presented in Table II. Results presented in Part A of the Table are expressed as the percent fractional release and results presented in Part B of the Table are expressed as a percentage, relative to nicotine response.

[3] = molecular target: T1, nicotinic acetylcholine receptor (Rattus norvegicus, UniProt P09483+P12390); assay: ^3 H-Nicotine binding/displacement, rat cerebral membranes
T1 construct: the brains removed and the cerebral cortex dissected on ice; from tissue; host or cells: cerebral cortex synaptic membranes of male Sprague-Dawley rats
T1 sequence (P09483 31-630): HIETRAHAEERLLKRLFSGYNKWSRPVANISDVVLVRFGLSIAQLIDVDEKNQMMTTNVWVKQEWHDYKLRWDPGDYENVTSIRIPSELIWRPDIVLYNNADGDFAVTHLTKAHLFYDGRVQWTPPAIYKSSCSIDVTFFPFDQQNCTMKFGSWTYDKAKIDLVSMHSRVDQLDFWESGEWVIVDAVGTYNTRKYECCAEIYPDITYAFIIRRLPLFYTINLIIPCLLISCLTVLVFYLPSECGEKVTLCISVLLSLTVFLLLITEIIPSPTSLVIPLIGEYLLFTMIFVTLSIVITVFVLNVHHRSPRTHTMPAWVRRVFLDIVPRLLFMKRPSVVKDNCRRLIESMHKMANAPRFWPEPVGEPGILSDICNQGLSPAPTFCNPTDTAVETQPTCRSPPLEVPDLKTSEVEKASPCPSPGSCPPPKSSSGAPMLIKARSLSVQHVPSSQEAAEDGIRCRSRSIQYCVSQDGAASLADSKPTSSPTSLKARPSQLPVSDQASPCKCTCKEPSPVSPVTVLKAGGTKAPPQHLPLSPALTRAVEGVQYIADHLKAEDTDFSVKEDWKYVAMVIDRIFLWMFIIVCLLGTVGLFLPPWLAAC
T1 sequence (P12390 25-500): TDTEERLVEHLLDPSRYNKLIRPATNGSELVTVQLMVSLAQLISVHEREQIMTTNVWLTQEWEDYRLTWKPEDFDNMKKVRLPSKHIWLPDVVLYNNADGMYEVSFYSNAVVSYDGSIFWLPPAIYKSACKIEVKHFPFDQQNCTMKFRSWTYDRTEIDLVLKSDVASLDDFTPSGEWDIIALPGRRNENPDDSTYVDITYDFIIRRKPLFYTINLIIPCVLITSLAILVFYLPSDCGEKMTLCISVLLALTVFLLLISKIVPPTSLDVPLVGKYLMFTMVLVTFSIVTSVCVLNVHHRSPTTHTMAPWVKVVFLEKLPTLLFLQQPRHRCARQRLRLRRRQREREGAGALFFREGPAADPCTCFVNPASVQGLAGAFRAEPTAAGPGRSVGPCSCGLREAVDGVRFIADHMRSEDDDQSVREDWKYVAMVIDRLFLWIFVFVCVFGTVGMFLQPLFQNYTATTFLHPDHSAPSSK
Method: ^3 H-Nicotine binding to rat cerebral membranes was performed according to modifications of the method of Flyn and Mash (J. Neurochem. 47:1948 (1986)). ^3 H-Nicotine (80 ci/mmol; New England Nuclear Corporation, Boston, Mass.) was used as the ligand for nicotinic acetylcholine receptor binding assays. All other reagents were purchased from the Sigma Chemical Co. (St. Louis, Mo.).
Male Sprague-Dawley rats (250-400 gm) were sacrificed by decapitation, the brains removed and the cerebral cortex dissected on ice. Synaptic membranes were prepared by homogenizing the cortical tissue in 20 volumes of ice-cold modified Tris buffer (50 mM Tris pH 7.4, 120 mM NaCl, 5 mM KCl, 2 mM EDTA, 1 mM PMSF) with a polytron (20 sec at setting 5-6) followed by centrifugation (15 min at 5,000×g) at 4° C. The resultant pellet was rehomogenized and centrifuged twice. The final pellet was resuspended in ice-cold assay buffer (50 mM Tris pH 7.4, 120 mM NaCl, 5 mM KCl, 2 mM CaCl2, 1 mM MgCl2) at a concentration of membrane equivalent to 1 gm wet weight cortex per 10 ml buffer. After protein determination the final membrane preparation was diluted with buffer to 3 mg protein/mi. This membrane preparation was used in either the fresh state or frozen (-70° C.) then thawed.
The binding assay is performed manually using 96-well plates, or using a Biomek automated work station (Beckman Instrument Co.). ^3 H-Nicotine was diluted in assay buffer to give a final concentration of 1.9 nM. The Biomek automated work station was programmed to automatically transfer 750 μl of assay buffer with ^3 H-nicotine, 230 μl of membrane preparation and 20 μl of solution containing the compound of interest in assay buffer, DMSO, ethanol:DMSO (1:1) or appropriate vehicle to the 96-well plate. Atropine was added to the incubation buffer at a final concentration of 3 μM to block binding to muscarinic acetylcholine receptor sites. The plates were maintained on ice for 60 min and the tissue-bound radioactivity was separated from the free by rapid filtration in a Brandel Harvester onto GF/C filters presoaked in 0.5% polyethyleneimine for at least 2 hr. The filters were washed with 4×2 ml of ice-cold assay buffer and filters were transferred to vials to which 4 ml of scintillation cocktail was added. The radioactivity was measured in a LS-6500 Beckman Liquid Scintillation Counter in an autodpm mode. Data were analyzed bylog-logit transformation or non-linear regression analysis (e.g., employing GraphPad Prism, available from GraphPad Software, San Diego, Calif.) to give IC50 values. Non-specific binding was defined by 10 μM cytisine.

[4] = test system: ^3 H-Norepinephrine release, rat hippocampus slices; assay: Ligand-stimulated ^3 H-norepinephrine release from rat hippocampus slices; type: cell-based; details: for Emax at 300 µM: Rattus norvegicus, nicotine 300 μM = 100, read-out: % of Nicotine Response, ^3 H-Norepinephrine, Hippocampus; for % of Nicotine Response, ^3 H-Norepinephrine, Hippocampus: nicotine 300 μM = 100
Method: as §1
(§3) Following essentially the same procedure as set forth above, the amount of ^3 H-norepinephrine released from rat hippocampus, thalamus and prefrontal cortex slices superfused with buffer containing (or lacking) compounds of interest was also measured.
as §2

[5] = test system: ^3 H-Dopamine release, rat olfactory tubercles; assay: Ligand-stimulated ^3 H-dopamine release from rat olfactory tubercles; type: cell-based; details: in vitro slices, 300 μM
Method: as §1, §2

[6] = test system: ^3 H-Norepinephrine release, rat thalamus slices; assay: Ligand-stimulated ^3 H-norepinephrine release from rat thalamus slices; type: cell-based; details: in vitro slices, 300 μM
Method: as §1, §3, §2

rats = assay: Locomotor activity assay; type: in vivo, rat (male Sprague-Dawley); details: Rattus norvegicus, sc, 20 mg/kg, s.c.
Method: This assay can be used to assess the primary effect of a compound on general motor activity. A decrease in locomotor activity is indicative of a possible sedative effect on the animal, whereas an increase in locomotor activity is indicative of a stimulant effect on the animal.
Locomotor activity of rats (male Sprague-Dawley (Harlan) weighing 200-250 gm) was measured for 2 hrs in photocell cages immediately after administration of the invention compound. Prior to the test day, the animals were placed in the activity cages for 3 hrs to familiarize them with the experimental environment. On the test day, the animals were placed in the photocell cages and then injected with compound 1.5 hrs later.
The photocell cages were standard rodent cages (30 cm×20 cm×40 cm) with four infrared beams crossing the long axis. The animals were under no motivational constraints and were free to move around. Movements from one infrared beam to another (ambulation) were called "crossover"; successive interruptions of the same beam (vertical and other movements such as grooming) were called "general activity."

[7] = ^3 H-QNB 60 pM, rat cerebral membranes
[8] = compounds at 300 μM, nicotine 10 μM = 100
[9] = ^3 H-nicotine 1.9 nM, rat cerebral membranes, read-out: IC50, Nicotine

Structure (SMILES)	IC50 [1, 7] [nM]	Emax at 300 µM [2, 8] [%]	IC50 [3, 9] [nM]	Emax at 300 µM [4] [%]	also measured
CN1CCCC1c1cncc(C#CC(C)(C)O)c1 (stereo not shown)	> 100000	118	38	18.3	–
C#Cc1cncc(C2CCCN2C)c1 (single isomer, unassigned) [5-Ethynyl-3-(1-methyl-2-pyrrolidinyl)pyridine di-p-toluoyl-L-tartrate]	–	–	–	–	Emax at 300 µM ([2]; compound at 300 μM, Nicotine concentration was 300 μM): 155%; IC50 ([3]; IC50, Nicotine): 2.6 nM
C#Cc1cncc(C2CCCN2C)c1 (single isomer, unassigned) [5-ethynyl-3-(1-methyl-2-pyrrolidinyl)pyridine di-p-toluoyl-D-tartrate]	–	33	–	–	IC50 ([3]; IC50, Nicotine): 78 nM
C#Cc1cncc(C2CCCN2C)c1 (single isomer, unassigned) [R^5 = 5-(1-ethynyl) Di-p-toluoyl-D-tartrate] [5-ethynyl-3-(1-methyl-2-pyrrolidinyl)pyridine di-p-toluoyl-D-tartrate]	4700	–	–	–	% of Nicotine Response, ^3 H-Norepinephrine, Hippocampus ([4]; 300 μM): 3.7%
C#Cc1cncc(C2CCCN2C)c1 (single isomer, unassigned) [R^5 = 5-(1-ethynyl) Di-p-toluoyl-L-tartrate] [5-Ethynyl-3-(1-methyl-2-pyrrolidinyl)pyridine di-p-toluoyl-L-tartrate]	–	–	–	–	% of Nicotine Response, ^3 H-Norepinephrine, Hippocampus ([4]; 300 μM): 17.4%
Fc1ccc(-c2cncc(C3CCCCN3)c2)cc1 (stereo not shown) [5-(4-Fluorophenyl)-3-(2-piperidinyl)pyridine fumarate]	24900	–	490	–	–
C#Cc1cncc(C2CCC(=O)N2C)c1 (stereo not shown) [A = C(O); R^7 = CH3; R^5 = 5-(1-ethynyl), 5-Ethynyl-3-(1-methyl-5-pyrrolidin-2-onyl)pyridine]	> 100000	–	> 100000	–	–
Cc1ccc(-c2cncc(C3CCCN3C)c2)cc1.O=C(O)/C=C/C(=O)O (stereo not shown) [R^5 = 4-methylphenyl, 5-(4-Methylphenyl)-3-(1-methyl-2-pyrrolidinyl)pyridine fumarate]	14000	–	31	–	percent fractional release, ^3 H-Dopamine, Striatum ([2]; in vitro slices, 300 μM): 0.74%; percent fractional release, ^3 H-Dopamine, Olfactory Tubercles [5]: 1.0%; percent fractional release, ^3 H-Norepinephrine, Thalamus [6]: 0.31%; percent fractional release, ^3 H-Norepinephrine, Hippocampus ([4]; in vitro slices, 300 μM): 0.52%
CN(C)CC#Cc1cncc(C2CCCN2C)c1 (stereo not shown) [R^5 = 5-(1-dimethylamino-2-propynyl), 5-[3-(1-Dimethylamino-2-propynyl)]-3-(1-methyl-2-pyrrolidinyl)pyridine fumarate]	100000	235	25	–	–
CN1CCCC1c1cncc(C#CCO)c1 (stereo not shown) [R^5 = 5-(1-hydroxy-2-propynyl)]	> 100000	157	3.6	39	–
CN1CCCC1c1cncc(C#CCCO)c1 (stereo not shown) [R^5 = 5-(1-hydroxy-3-butynyl)]	> 100000	100	6	36.3	–
COCC#Cc1cncc(C2CCCN2C)c1 (stereo not shown) [R^5 = 5-(1-methoxy-2-propynyl), 5-[3-(1-Methoxy-2-propynyl)]-3-(1-methyl-2-pyrrolidinyl)pyridine fumarate]	> 100000	61.7	2.6	7.4	–
CCCC#Cc1cncc(C2CCCN2C)c1 (stereo not shown) [R^5 = 5-(1-pentynyl), 5-[1-(1-Pentynyl)]-3-(1-methyl-2-pyrrolidinyl)pyridine fumarate]	39000	27.7	4.2	–	–
CC#Cc1cncc(C2CCCN2C)c1 (stereo not shown) [R^5 = 5-(1-propynyl), 5-[1-(1-Propynyl)]-3-(1-methyl-2-pyrrolidinyl)pyridine fumarate]	> 100000	–	29	–	–
CC(O)C#Cc1cncc(C2CCCN2C)c1 (stereo not shown) [R^5 = 5-(2-hydroxy-3-butynyl), 5-[4-(2-Hydroxy-3-butynyl)]-3-(1-methyl-2-pyrrolidinyl)pyridine fumarate]	> 100000	98	11	30.5	–
CN1CCCC1c1cncc(C#CCCCCCCC#Cc2cncc(C3CCCN3C)c2)c1 (stereo not shown) [R^5 = See below*, 1,10-Bis-5-[3-(1-methyl-2-pyrrolidinyl)pyridine]-deca-1,9-diyne fumarate]	–	–	–	–	IC50 [1]: 7500 nM; IC50 ([3]; IC50, Nicotine, ^3 H-nicotine 1.9 nM, rat cerebral membranes): 5.2 nM
CN1CCCC1c1cncc(C#Cc2ccccc2)c1 (stereo not shown) [R^5 = phenylethynyl, 5-Phenylethynyl-3-(1-methyl-2-pyrrolidinyl)pyridine fumarate]	–	–	–	–	change in vivo at 20 mg/kg (rats; 1 h, 0-60 min, read-out: Ambulation (cross overs), percent of change from control): 7%; change in vivo at 20 mg/kg (rats; 1 h, 0-60 min, read-out: General Activity (beam breaks), percent of change from control): 3%; change in vivo at 20 mg/kg (rats; 2 h, 60-120 min, read-out: Ambulation (cross overs), percent of change from control): -16%; change in vivo at 20 mg/kg (rats; 2 h, 60-120 min, read-out: General Activity (beam breaks), percent of change from control): -11%
C#Cc1cncc(C2CCCN2)c1 (stereo not shown) [R^7 = H; R^5 = 5-(1-ethynyl), 5-Ethynyl-3-(1-H-2-pyrrolidinyl)pyridine fumarate]	8900	61.7	58	13.4	–
